Laboratory results from US12070464B2, “Methods of treating myeloproliferative disorders” (priority 2019, dated 2024).
Where two headings read alike, the source gives them in different places.

Assays:
[1] = test system: CD34+ cells isolated from the bone marrow of two healthy donors; assay: Megakaryocyte differentiation and proliferation, alone and with ruxolitinib, 10 days (FACS); format: cell-based; conditions: 240 h
Text: The cells were then harvested for FACS analysis with live/dead stain and gating with CD34 (progenitor marker) and CD41a and CD42b (mature megakaryocyte markers).

myelofibrosis patients = conditions: cited from earlier work

Compound: N#CC[C@H](C1CCCC1)n1cc(-c2ncnc3[nH]ccc23)cn1 [Ruxolitinib, (R)-3-(4-(7H-pyrrolo[2,3-d]pyrimidin-4-yl)-1H-pyrazol-1-yl)-3-cyclopentylpropanenitrile phosphate, reference compound]
- EC50 ([1]; 10 days, Donor 1, percent of cells double positive for CD41a and CD42b, read-out: Megakaryocyte differentiation EC50): 517 nM
- EC50 ([1]; 10 days, Donor 1, read-out: Megakaryocyte live count EC50): 312 nM
- EC50 ([1]; 10 days, Donor 1, read-out: Total live count EC50): 288 nM
- EC50 ([1]; 10 days, Donor 1, read-out: Viability EC50): 676 nM
- EC50 ([1]; 10 days, Donor 2, percent of cells double positive for CD41a and CD42b, read-out: Megakaryocyte differentiation EC50): 535 nM
- EC50 ([1]; 10 days, Donor 2, read-out: Megakaryocyte live count EC50): 258 nM
- EC50 ([1]; 10 days, Donor 2, read-out: Total live count EC50): 259 nM
- EC50 ([1]; 10 days, Donor 2, read-out: Viability EC50): 611 nM
- EC50 ([1]; 10 days, Mean of two donors, read-out: Megakaryocyte differentiation EC50): 526 nM
- EC50 ([1]; 10 days, Mean of two donors, read-out: Megakaryocyte live count EC50): 285 nM
- EC50 ([1]; 10 days, Mean of two donors, read-out: Viability EC50): 644 nM
- EC50 ([1]; read-out: Total live count EC50 (overall cell proliferation)): 274 nM
- effect on mutant allele burden and bone marrow fibrosis (myelofibrosis patients; Curr Hematol Malig Rep 2017): does not affect the mutant allele burden or bone marrow fibrosis
- effect on red blood cell production and hemoglobin levels (myelofibrosis patients; in vivo): known to decrease red blood cell production and hemoglobin levels
